Source: paper PMC9207808 (ACS Chemical Biology, 2022)
Residues, ends and D or L forms follow the SMILES beside them.

Experiments:
[1] = test system: DocSTm; test: Differential scanning fluorimetry (thermal stabilisation of Doc); assay type: binding, S. Typhimurium; details: for melting temperature shift ΔTm: DSF, DocSTm 5 μM, analyte 50 μM, Tm with analyte minus Tm of free DocSTm (42.9 ± 0.9 °C), SYPRO Orange, 20 mM K2HPO4, 50 mM (NH4)2SO4, pH 8.0, triplicate; for Average Tm / Tm: DocSTm 5 µM + 50 µM binder; for Average Tm: average of 3 replicates
Method: Experiments were performed in a Mx3005P qPCR System (Agilent) collecting fluorescence data with a temperature ramp of 25 to 95 °C. Samples were prepared in a buffer containing 20 mM K2HPO4 and 50 mM (NH4)2SO4 at pH 8.0. The SYPRO Orange dye (Sigma-Aldrich, 5000× stock in DMSO) was used to monitor protein denaturation and was diluted to a final concentration of 3×. For binding experiments, the final concentration of Doc was 5 μM. Each condition was performed in triplicate (ESI section 4) and the melting curves were plotted using GraphPad Prism 5 (GraphPad Software, U.S.A.). The melting temperatures were obtained by fitting the sigmoidal section of the curves to a Boltzmann sigmoid function.

[2] = target: DocSTm; test: Surface plasmon resonance binding to immobilised Doc; set-up: species or system S. Typhimurium; details: for koff × 10^-6 / kon × 10^6: 1:1 kinetic fit, mean ± SD of at least 3 replicates; for kon × 10^6: single-cycle kinetics (multicycle for PhdSTm1-73); for Half-life of the complex: t1/2 = ln2 / koff
Method: Experiments were performed in a Biacore S200 (Cytiva) with a Series S sensor chip NTA (Cytiva). The data was analyzed using the Biacore Evaluation Software (Cytiva) and curves were plotted using GraphPad Prism 5 (GraphPad Software, U.S.A.). All experiments were performed at 22 °C with a running buffer containing 10 mM HEPES, 500 mM NaCl, 50 μM EDTA, and 0.005% (v/v) TWEEN 20 at pH 8.0. The surface was conditioned following the standard manufacturer’s guidelines and protein immobilization was performed with a 30–60 s pulse (flow rate of 5 μL/min) of Doc (150 nM) in running buffer. […] Surface regeneration was performed with a 1 min pulse of 0.5 M imidazole followed by a 1 min pulse of 0.35 M of EDTA at pH 8.0.
Binding to Doc was performed using a multicycle kinetics (MCK) setup for peptides 7, 10, and 14, while the remaining samples were tested using a single-cycle kinetics (SCK) setup. The surface was fully regenerated in between each analyte in both cases. In the MCK experiments, increasing concentrations of each analyte were injected with an 80 s pulse (30 μL/min) and dissociation times varied depending on the time required to fully dissociate the complex. The double-referenced sensorgrams (raw data subtracted from a blank injection and reference surface responses) were analyzed using a kinetic and/or a steady-state 1:1 binding model. In the SCK experiments, typically six concentrations of each analyte were sequentially injected with 80 s pulses (30 μL/min), and dissociation times varied depending on the time required to dissociate at least 5% of the complex. The double-referenced sensorgrams were fitted using a kinetic 1:1 binding model.
At least three independent replicates were measured for each analyte (ESI section 5). When a steady-state fit was applied, the reported Kd and its uncertainty correspond, respectively, to the average and standard deviations of the Kd obtained in each measurement. When a kinetic fit was applied, the reported rate constants (kon and koff) and their uncertainties correspond, respectively, to the average and standard deviations of the rate constants obtained in each measurement. In this case, reported Kd were calculated using the equation below, and the standard deviation of the rate constants was propagated. [drawing 1]

[3] = SPR, kinetic fit, KD calculated from mean koff and kon, SD propagated, 22 °C, pH 8.0

Structure (SMILES)	melting temperature shift ΔTm [1] [°C]	Average Tm [1] [°C]	Tm ([1]; replicate 1) [°C]	Tm ([1]; replicate 2) [°C]	Tm ([1]; replicate 3) [°C]	Kd ([2]; SPR kinetic fit, replicate 1) [nM]	Kd ([2]; SPR kinetic fit, replicate 2) [nM]	Kd ([2]; SPR kinetic fit, replicate 3) [nM]	koff × 10^-6 ([2]; SPR, 22 °C, pH 8.0)	kon × 10^6 ([2]; SPR, 22 °C, pH 8.0)	Kd [2, 3] [nM]	Half-life of the complex [2] [h]
CC[C@H](C)[C@H](NC(=O)[C@H](C)NC(=O)[C@H](C)NC(=O)[C@H](Cc1ccccc1)NC(=O)[C@H](CCC(=O)O)NC(=O)[C@H](CC(=O)O)NC(=O)[C@H](CC(=O)O)NC(=O)[C@H](C)NC(=O)[C@H](Cc1c[nH]c2ccccc12)NC(C)=O)C(=O)N[C@@H](CCSC)C(=O)N[C@@H](C)C(=O)N[C@H](C(=O)N[C@@H](Cc1c[nH]cn1)C(=O)NCC(=O)N[C@@H](CC(N)=O)C(=O)N[C@@H](CCC(=O)O)C(=O)N[C@@H](CC(C)C)C(=O)N[C@@H](CCCNC(=N)N)C(=O)N[C@@H](CCC(=O)O)C(=O)N[C@@H](CC(C)C)C(=O)N[C@@H](C)C(=O)N[C@@H](CC(=O)O)C(=O)N[C@@H](CCCCN)C(=O)O)C(C)C [peptide 2] (Ac-WADDEFAAIMAVHGNELRELADK-OH; C-terminus assumed)	28.0 ± 1.0	70.9 ± 0.4	71.3	70.8	70.6	0.0523	0.0478	0.0551	59 ± 11 ×10^-6 s-1	1.136 ± 0.140 ×10^6 M-1 s-1	0.052 ± 0.012	3.3 ± 0.6
CC[C@H](C)[C@H](NC(=O)[C@H](C)NC(=O)[C@H](C)NC(=O)[C@H](Cc1ccccc1)NC(=O)[C@H](C)NC(=O)[C@H](CC(=O)O)NC(=O)[C@H](CC(=O)O)NC(=O)[C@H](CCSC)NC(=O)[C@H](Cc1c[nH]c2ccccc12)NC(C)=O)C(=O)N[C@@H](CCSC)C(=O)N[C@@H](C)C(=O)N[C@H](C(=O)N[C@@H](Cc1c[nH]cn1)C(=O)NCC(=O)N[C@@H](CC(N)=O)C(=O)N[C@@H](CCC(=O)O)C(=O)N[C@@H](CC(C)C)C(=O)N[C@@H](CCCNC(=N)N)C(=O)N[C@@H](CCC(=O)O)C(=O)N[C@@H](CC(C)C)C(=O)N[C@@H](C)C(=O)N[C@@H](CC(=O)O)C(=O)N[C@@H](CCCCN)C(=O)O)C(C)C [peptide 5] (Ac-WMDDAFAAIMAVHGNELRELADK-OH; C-terminus assumed)	23.4 ± 0.9	66.3 ± 0.1	66.3	66.3	66.2	0.0489	0.0513	0.0469	75 ± 5 ×10^-6 s-1	1.542 ± 0.147 ×10^6 M-1 s-1	0.049 ± 0.006	2.6 ± 0.2
CC[C@H](C)[C@H](NC(=O)[C@H](C)NC(=O)[C@H](C)NC(=O)[C@H](Cc1ccccc1)NC(=O)[C@H](CCC(=O)O)NC(=O)[C@H](CC(=O)O)NC(=O)[C@H](CC(=O)O)NC(=O)[C@H](CCSC)NC(=O)[C@H](Cc1c[nH]c2ccccc12)NC(C)=O)C(=O)N[C@@H](CCSC)C(=O)N[C@@H](C)C(=O)N[C@@H](C)C(=O)N[C@@H](Cc1c[nH]cn1)C(=O)NCC(=O)N[C@@H](CC(N)=O)C(=O)N[C@@H](CCC(=O)O)C(=O)N[C@@H](CC(C)C)C(=O)N[C@@H](CCCNC(=N)N)C(=O)N[C@@H](CCC(=O)O)C(=O)N[C@@H](CC(C)C)C(=O)N[C@@H](C)C(=O)N[C@@H](CC(=O)O)C(=O)N[C@@H](CCCCN)C(=O)O [peptide 9] (Ac-WMDDEFAAIMAAHGNELRELADK-OH; C-terminus assumed)	24.6 ± 1.2	67.5 ± 0.7	68.3	67.4	66.9	0.183	0.239	0.132	388 ± 57 ×10^-6 s-1	2.266 ± 0.942 ×10^6 M-1 s-1	0.171 ± 0.076	0.50 ± 0.07
